# Earlier results, collected in US8623868B2, “Processes of making and using pharmaceutical formulations of antineoplastic agents” (Merck Sharp & Dohme Corp., priority 2002, dated 2014).
# Columns and labels:
# [1] = tested on: advanced melanoma; details: patients with advanced melanoma; Journal of Clinical Oncology 13(4) 1995
# [2] = tested on: advanced melanoma; details: patients having advanced melanoma; Newlands et al., Br J Cancer 1992
smiles,measurement,setting,value
Cn1nnc2c(C(N)=O)ncn2c1=O [Temozolomide],"clinical response achieved, % of patients",[1],21%
same,water solubility,,water-insoluble
same,"clinical responses achieved, % of patients",[2],17%
